Results published in ChEMBL document CHEMBL5705898 (Proc Natl Acad Sci U S A, 2014).

How the values were obtained:
[1] = biological target: Insulin receptor (Homo sapiens) (UniProt P06213); assay: Inhibition of human IRK (InsR) at 10 uM relative to control
Homo sapiens [2] = species on record: Homo sapiens; assay: Inhibition of Ca2+ channel L, dihydropyridine site (unknown origin) at 10 uM relative to control
[3] = biological target: Kappa-type opioid receptor (Homo sapiens, UniProt P41145); assay: Inhibition of human kappa opioid receptor
Kappa-type opioid receptor, sequence (P41145 whole entry): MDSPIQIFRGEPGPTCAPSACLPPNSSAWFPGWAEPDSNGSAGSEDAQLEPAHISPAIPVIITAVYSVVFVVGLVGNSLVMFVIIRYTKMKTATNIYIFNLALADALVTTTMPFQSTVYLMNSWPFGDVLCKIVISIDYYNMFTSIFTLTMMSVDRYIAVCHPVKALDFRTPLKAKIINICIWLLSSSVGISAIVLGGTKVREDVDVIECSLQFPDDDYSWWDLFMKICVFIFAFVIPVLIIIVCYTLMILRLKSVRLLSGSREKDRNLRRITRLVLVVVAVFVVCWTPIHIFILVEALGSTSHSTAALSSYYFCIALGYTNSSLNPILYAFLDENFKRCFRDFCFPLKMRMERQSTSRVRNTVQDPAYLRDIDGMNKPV

[4] = biological target: Alpha-2A adrenergic receptor (Homo sapiens) (UniProt P08913); assay: Inhibition of human alpha 2A receptor at 10 uM relative to control
[5] = biological target: Alpha-2C adrenergic receptor (Homo sapiens) (UniProt P18825); assay: Inhibition of human alpha 2C receptor at 10 uM relative to control
[6] = biological target: T1, Histone-lysine N-methyltransferase SETD7 (Homo sapiens, UniProt Q8WTS6); assay: Inhibition of wildtype full length human SETD7 (1 to 366 residues) expressed in Escherichia coli BL21 (DE3) V2R-pRARE using biotinylated H3 (1-25) peptide as substrate incubated for 1 hrs in presence of 3H-SAM by radioactivity based assay
T1 sequence (Q8WTS6 whole entry): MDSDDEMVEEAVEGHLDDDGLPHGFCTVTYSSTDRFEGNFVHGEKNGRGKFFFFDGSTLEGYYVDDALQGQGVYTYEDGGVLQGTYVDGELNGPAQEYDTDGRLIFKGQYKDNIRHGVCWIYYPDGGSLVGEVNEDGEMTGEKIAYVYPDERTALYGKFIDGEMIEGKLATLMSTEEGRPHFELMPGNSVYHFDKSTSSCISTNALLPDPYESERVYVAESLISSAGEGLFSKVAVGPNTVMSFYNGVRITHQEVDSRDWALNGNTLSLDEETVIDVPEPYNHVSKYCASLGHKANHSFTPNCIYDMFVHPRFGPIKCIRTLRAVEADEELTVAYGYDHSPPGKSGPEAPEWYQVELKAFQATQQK

[7] = biological target: Substance-P receptor (Homo sapiens) (UniProt P25103); assay: Inhibition of human NK1 receptor at 10 uM relative to control
[8] = biological target: Muscarinic acetylcholine receptor M1 (Homo sapiens) (UniProt P11229); assay: Inhibition of human M1 receptor at 10 uM relative to control
Muscarinic acetylcholine receptor M1 (Homo sapiens), sequence (P11229 whole entry): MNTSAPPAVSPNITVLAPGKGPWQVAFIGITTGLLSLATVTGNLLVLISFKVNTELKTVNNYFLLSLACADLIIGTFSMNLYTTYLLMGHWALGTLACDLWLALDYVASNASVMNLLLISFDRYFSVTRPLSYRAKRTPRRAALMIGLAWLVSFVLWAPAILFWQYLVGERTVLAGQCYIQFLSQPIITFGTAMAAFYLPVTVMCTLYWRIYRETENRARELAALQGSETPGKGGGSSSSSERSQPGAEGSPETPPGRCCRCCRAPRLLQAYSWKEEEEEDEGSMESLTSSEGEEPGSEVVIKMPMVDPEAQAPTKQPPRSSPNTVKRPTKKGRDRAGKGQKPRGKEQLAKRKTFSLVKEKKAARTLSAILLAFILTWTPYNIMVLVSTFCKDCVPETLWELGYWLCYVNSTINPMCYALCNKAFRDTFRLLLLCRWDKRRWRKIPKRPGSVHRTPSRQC

[9] = biological target: Muscarinic acetylcholine receptor M4 (Homo sapiens) (UniProt P08173); assay: Inhibition of human M4 receptor at 10 uM relative to control
[10] = biological target: Prostaglandin E2 receptor EP2 subtype (Homo sapiens) (UniProt P43116); assay: Inhibition of human EP2 receptor at 10 uM relative to control
[11] = biological target: Mitogen-activated protein kinase 1 (Homo sapiens) (UniProt P28482); assay: Inhibition of human ERK2 (P42mapk) at 10 uM relative to control
Homo sapiens [12] = species on record: Homo sapiens; assay: Inhibition of Ca2+ channel L, verapamil site (unknown origin) at 10 uM relative to control
[13] = biological target: 5-hydroxytryptamine receptor 1D (Homo sapiens) (UniProt P28221); assay: Inhibition of 5-HT1D receptor (unknown origin) at 10 uM relative to control
5-hydroxytryptamine receptor 1D (Homo sapiens), sequence (P28221 whole entry): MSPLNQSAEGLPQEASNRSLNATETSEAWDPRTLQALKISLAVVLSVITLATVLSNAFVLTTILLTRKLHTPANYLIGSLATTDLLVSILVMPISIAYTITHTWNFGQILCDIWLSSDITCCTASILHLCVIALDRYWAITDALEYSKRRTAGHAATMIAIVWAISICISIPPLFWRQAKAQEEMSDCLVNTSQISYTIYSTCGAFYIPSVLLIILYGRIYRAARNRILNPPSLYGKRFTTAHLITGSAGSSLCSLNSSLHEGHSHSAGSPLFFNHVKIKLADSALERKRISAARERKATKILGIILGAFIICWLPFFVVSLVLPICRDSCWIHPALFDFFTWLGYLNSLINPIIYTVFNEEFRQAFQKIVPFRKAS

Homo sapiens [14] = species on record: Homo sapiens; assay: Inhibition of kainate receptor (unknown origin) at 10 uM relative to control
[15] = biological target: Acetylcholinesterase (Homo sapiens) (UniProt P22303); assay: Inhibition of human acetylcholinesterase at 10 uM relative to control
[16] = biological target: cGMP-inhibited 3',5'-cyclic phosphodiesterase 3B (Homo sapiens) (UniProt Q13370); assay: Inhibition of human PDE3B at 10 uM relative to control
Homo sapiens [17] = species on record: Homo sapiens; assay: Inhibition of Na+ channel site 2 (unknown origin) at 10 uM relative to control
[18] = biological target: Muscarinic acetylcholine receptor M3 (Homo sapiens) (UniProt P20309); assay: Inhibition of human M3 receptor at 10 uM relative to control
Homo sapiens [19] = species on record: Homo sapiens; assay: Inhibition of PDE6 (unknown origin) at 10 uM relative to control
[20] = biological target: Histamine H4 receptor (Homo sapiens) (UniProt Q9H3N8); assay: Inhibition of human H4 receptor at 10 uM relative to control
[21] = biological target: Adenosine receptor A2b (Homo sapiens) (UniProt P29275); assay: Inhibition of human A2B receptor at 10 uM relative to control
Adenosine receptor A2b (Homo sapiens), sequence (P29275 whole entry): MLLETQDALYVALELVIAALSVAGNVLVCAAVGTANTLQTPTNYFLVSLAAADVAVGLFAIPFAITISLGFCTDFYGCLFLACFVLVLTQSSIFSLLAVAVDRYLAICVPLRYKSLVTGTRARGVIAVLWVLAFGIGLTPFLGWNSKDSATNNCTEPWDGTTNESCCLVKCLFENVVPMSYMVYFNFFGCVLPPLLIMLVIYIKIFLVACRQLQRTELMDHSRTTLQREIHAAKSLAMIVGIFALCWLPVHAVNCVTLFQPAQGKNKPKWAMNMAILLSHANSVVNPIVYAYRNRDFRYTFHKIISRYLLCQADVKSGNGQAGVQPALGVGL

Homo sapiens [22] = species on record: Homo sapiens; assay: Inhibition of human NOP(ORL1) at 10 uM relative to control
[23] = biological target: Muscarinic acetylcholine receptor M2 (Homo sapiens) (UniProt P08172); assay: Inhibition of human M2 receptor at 10 uM relative to control
Muscarinic acetylcholine receptor M2 (Homo sapiens), sequence (P08172 whole entry): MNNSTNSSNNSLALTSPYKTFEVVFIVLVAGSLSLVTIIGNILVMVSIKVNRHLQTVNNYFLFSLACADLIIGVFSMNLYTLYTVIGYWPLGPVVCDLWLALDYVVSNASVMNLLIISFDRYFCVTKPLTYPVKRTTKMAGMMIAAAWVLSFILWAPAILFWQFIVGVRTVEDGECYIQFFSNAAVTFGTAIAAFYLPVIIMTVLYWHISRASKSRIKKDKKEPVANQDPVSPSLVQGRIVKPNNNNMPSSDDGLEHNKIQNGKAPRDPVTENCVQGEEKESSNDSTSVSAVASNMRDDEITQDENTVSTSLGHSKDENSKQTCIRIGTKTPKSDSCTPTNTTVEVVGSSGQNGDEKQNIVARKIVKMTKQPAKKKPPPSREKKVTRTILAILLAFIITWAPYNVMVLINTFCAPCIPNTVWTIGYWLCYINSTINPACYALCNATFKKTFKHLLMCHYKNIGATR

[24] = biological target: Beta-secretase 1 (Homo sapiens) (UniProt P56817); assay: Inhibition of human BACE-1 at 10 uM relative to control
[25] = biological target: Somatostatin receptor type 1 (Homo sapiens) (UniProt P30872); assay: Inhibition of human sst1 at 10 uM relative to control
Somatostatin receptor type 1 (Homo sapiens), sequence (P30872 whole entry): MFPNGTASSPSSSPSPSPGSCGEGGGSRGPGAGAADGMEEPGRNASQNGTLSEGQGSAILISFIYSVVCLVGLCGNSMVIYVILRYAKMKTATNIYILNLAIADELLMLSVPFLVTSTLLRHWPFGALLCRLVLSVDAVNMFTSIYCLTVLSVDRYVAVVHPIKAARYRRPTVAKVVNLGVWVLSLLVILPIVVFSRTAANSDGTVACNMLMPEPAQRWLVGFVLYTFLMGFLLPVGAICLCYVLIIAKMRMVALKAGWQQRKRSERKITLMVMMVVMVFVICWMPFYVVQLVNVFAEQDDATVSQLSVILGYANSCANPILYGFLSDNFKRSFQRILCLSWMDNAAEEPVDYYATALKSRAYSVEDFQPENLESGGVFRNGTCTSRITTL

[26] = biological target: Cysteinyl leukotriene receptor 1 (Homo sapiens) (UniProt Q9Y271); assay: Inhibition of human CysLT1 at 10 uM relative to control
[27] = biological target: Prostaglandin G/H synthase 2 (Homo sapiens) (UniProt P35354); assay: Inhibition of human COX2 at 10 uM relative to control
Prostaglandin G/H synthase 2 (Homo sapiens), sequence (P35354 whole entry): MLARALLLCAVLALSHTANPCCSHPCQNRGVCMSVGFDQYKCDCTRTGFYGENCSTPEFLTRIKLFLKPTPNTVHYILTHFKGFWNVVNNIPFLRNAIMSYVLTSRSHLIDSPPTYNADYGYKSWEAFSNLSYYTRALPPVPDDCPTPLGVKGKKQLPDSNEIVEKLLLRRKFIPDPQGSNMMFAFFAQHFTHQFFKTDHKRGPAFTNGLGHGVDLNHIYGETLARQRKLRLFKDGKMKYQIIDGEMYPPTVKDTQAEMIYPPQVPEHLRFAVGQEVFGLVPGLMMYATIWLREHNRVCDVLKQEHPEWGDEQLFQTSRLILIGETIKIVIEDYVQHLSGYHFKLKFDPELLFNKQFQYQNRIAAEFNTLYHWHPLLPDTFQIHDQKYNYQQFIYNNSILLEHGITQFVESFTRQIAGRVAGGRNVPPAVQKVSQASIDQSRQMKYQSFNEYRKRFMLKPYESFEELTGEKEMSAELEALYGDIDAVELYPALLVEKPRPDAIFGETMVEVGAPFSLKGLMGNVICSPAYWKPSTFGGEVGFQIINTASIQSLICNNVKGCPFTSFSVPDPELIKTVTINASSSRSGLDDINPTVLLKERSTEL

[28] = biological target: Bombesin receptor subtype-3 (Homo sapiens, UniProt P32247); assay: Inhibition of human BB3 receptor
Bombesin receptor subtype-3, sequence (P32247 whole entry): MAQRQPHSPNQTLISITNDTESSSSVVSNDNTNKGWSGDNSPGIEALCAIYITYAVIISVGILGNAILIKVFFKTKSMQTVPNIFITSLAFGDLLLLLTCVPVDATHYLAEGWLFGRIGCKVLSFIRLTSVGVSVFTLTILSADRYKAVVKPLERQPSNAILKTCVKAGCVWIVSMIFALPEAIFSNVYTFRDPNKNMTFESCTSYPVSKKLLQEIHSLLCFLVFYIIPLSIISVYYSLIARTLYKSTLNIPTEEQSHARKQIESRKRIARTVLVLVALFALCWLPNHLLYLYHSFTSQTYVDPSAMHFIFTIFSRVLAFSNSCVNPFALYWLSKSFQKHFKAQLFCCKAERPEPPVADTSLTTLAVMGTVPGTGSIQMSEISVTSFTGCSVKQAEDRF

[29] = biological target: Catechol O-methyltransferase (Homo sapiens) (UniProt P21964); assay: Inhibition of COMT (unknown origin) at 10 uM relative to control
Homo sapiens [30] = species on record: Homo sapiens; assay: Inhibition of human CDK2/CycA at 10 uM relative to control
[31] = Inhibition of Ca2+ channel L, diltiazem site (unknown origin); set-up: species or system Homo sapiens
Homo sapiens [32] = species on record: Homo sapiens; assay: Inhibition of human TR at 10 uM relative to control
[33] = biological target: Peroxisome proliferator-activated receptor gamma (Homo sapiens) (UniProt P37231); assay: Inhibition of human PPARgamma at 10 uM relative to control
Peroxisome proliferator-activated receptor gamma (Homo sapiens), sequence (P37231 whole entry): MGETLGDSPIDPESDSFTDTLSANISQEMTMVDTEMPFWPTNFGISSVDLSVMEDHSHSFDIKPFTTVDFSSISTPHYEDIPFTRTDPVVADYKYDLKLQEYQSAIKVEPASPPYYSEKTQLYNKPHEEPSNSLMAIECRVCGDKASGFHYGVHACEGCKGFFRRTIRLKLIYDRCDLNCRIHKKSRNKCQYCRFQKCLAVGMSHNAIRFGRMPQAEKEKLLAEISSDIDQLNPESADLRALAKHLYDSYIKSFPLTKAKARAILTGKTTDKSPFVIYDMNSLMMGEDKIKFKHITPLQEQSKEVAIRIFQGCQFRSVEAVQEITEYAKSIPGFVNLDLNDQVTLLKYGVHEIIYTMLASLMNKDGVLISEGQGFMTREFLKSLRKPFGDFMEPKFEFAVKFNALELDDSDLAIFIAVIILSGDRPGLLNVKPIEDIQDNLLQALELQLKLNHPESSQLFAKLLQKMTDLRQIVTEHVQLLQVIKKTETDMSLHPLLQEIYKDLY

[34] = biological target: 3',5'-cyclic-AMP phosphodiesterase 4D (Homo sapiens) (UniProt Q08499); assay: Inhibition of human PDE4D2 at 10 uM relative to control
3',5'-cyclic-AMP phosphodiesterase 4D (Homo sapiens), sequence (Q08499 whole entry): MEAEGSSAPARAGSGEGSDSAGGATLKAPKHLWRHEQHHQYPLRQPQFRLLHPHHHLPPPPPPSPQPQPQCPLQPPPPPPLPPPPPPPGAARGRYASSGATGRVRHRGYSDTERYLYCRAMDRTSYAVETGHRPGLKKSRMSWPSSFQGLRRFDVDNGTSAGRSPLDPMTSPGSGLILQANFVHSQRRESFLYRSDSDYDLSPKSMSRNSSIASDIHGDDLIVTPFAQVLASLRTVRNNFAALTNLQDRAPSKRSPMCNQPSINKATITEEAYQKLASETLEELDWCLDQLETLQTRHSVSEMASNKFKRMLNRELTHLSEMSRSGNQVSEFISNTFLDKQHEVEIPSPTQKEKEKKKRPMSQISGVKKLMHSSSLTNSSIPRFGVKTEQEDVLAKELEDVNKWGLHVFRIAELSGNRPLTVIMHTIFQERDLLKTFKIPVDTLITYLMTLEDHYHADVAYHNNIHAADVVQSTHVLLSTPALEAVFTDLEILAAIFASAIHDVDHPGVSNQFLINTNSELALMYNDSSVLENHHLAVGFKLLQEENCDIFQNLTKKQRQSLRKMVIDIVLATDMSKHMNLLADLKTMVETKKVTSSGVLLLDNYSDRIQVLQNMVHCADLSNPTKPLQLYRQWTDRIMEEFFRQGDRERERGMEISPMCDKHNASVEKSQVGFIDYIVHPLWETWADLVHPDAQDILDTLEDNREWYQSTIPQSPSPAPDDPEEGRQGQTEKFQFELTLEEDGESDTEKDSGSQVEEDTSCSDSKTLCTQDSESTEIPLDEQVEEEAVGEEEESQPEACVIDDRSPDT

[35] = biological target: 5-hydroxytryptamine receptor 1B (Homo sapiens) (UniProt P28222); assay: Inhibition of 5-HT1B receptor (unknown origin) at 10 uM relative to control
[36] = biological target: Gamma-aminobutyric acid receptor subunit beta-1 (Homo sapiens) (UniProt P18505); assay: Inhibition of human GABA beta 1b at 10 uM relative to control
[37] = biological target: T1, Histone-lysine N-methyltransferase SETD7; assay: Binding affinity to biotinylated SETD7 (unknown origin) assessed as dissociation constant in presence of SAM in flow and wash buffer by SPR analysis
[38] = biological target: Delta-type opioid receptor (Homo sapiens) (UniProt P41143); assay: Inhibition of human delta 2 opioid receptor at 10 uM relative to control
[39] = biological target: Calcium/calmodulin-dependent protein kinase type II subunit alpha (Homo sapiens) (UniProt Q9UQM7); assay: Inhibition of human CaMK2alpha at 10 uM relative to control
Homo sapiens [40] = species on record: Homo sapiens; assay: Inhibition of human TNF-alpha at 10 uM relative to control

SMILES: O=C([C@@H](Cc1cccc(C(F)(F)F)c1)NS(=O)(=O)c1cc(F)c2c(c1)CCNC2)N1CCCC1
- inhibition [1]: 0%
- inhibition (Homo sapiens [2]): -10%
- IC50 [3]: 3.8 µM
- inhibition [4]: 15%
- inhibition [5]: 10%
- IC50 [6]: 0.002 µM
- inhibition [7]: 43%
- inhibition [8]: 16%
- inhibition [9]: 19%
- inhibition [10]: -1%
- inhibition [11]: 5%
- inhibition (Homo sapiens [12]): 18%
- inhibition [13]: 10%
- inhibition (Homo sapiens [14]): -3%
- inhibition [15]: 0%
- inhibition [16]: -5%
- inhibition (Homo sapiens [17]): 43%
- inhibition [18]: 37%
- inhibition (Homo sapiens [19]): 11%
- inhibition [20]: -2%
- inhibition [21]: -3%
- inhibition (Homo sapiens [22]): 11%
- inhibition [23]: 3%
- inhibition [24]: 3%
- inhibition [25]: 5%
- inhibition [26]: -1%
- inhibition [27]: -8%
- IC50 [28]: 8.1 µM
- inhibition [29]: -9%
- inhibition (Homo sapiens [30]): -1%
- IC50 [31]: 14 µM
- inhibition (Homo sapiens [32]): 5%
- inhibition [33]: 7%
- inhibition [34]: 1%
- inhibition [35]: 7%
- inhibition [36]: 5%
- Kd [37]: 0.0042 µM
- inhibition [38]: 47%
- inhibition [39]: 6%
- inhibition (Homo sapiens [40]): -4%
